Data: patent US20260183295A1, “METHODS AND COMPOSITIONS FOR TREATING CANCER” (Onconova Therapeutics, Inc., priority 2022, published 2026)

What was measured:
Assay in all cases: CETSA-MS, MDA-MB-231 intact cells
Type in all cases: cell-based
Conditions in all cases: 2 μM and 20 μM
CCN1 = target: T1, CCN1 (Homo sapiens, UniProt O00622)
T1 construct: endogenous in cells; host or cells: MDA-MB-231
Method: (§1) TNBC MDA-MB-231 cells were grown at 37° C. in 5% CO2 and suspended in warm media and split into 4 equal volumes. […] Cells were incubated and then pelleted. Following pelleting, the cells were washed, resuspended, and heated in a thermal gradient. Following heating, the samples were flash frozen and lysed in lysis buffer, agitated by vortex, and sonicated prior to centrifugation. The supernatant was collected and denaturation buffer added. Cold acetone was then added to the cell samples, and protein collected by centrifugation. Pellets were then washed twice with cold acetone and the washed pellets prior to labeling.
(§2) The intact cell protein samples and lysate protein samples were then digested and labeled for mass spectrometry analysis according to the manufacturer's recommended protocols. Digested and labeled protein samples were analyzed by mass spectrometry proteomic analysis and the resulting protein targets were analyzed and plotted.

HNRNPA2B1 = target: T2, HNRNPA2B1 (Homo sapiens, UniProt P22626)
T2 construct: 148 targets unique to Compound 1 in MDA-MB-231 intact cells; endogenous in cells; host or cells: MDA-MB-231
Method: as §1, §2

RBM34 = target: T3, RBM34 (Homo sapiens, UniProt P42696)
T3 construct: endogenous in cells; host or cells: MDA-MB-231
Method: as §1, §2

MAP3K20 = target: T4, MAP3K20 (Homo sapiens, UniProt Q9NYL2)
T4 construct: endogenous in cells; host or cells: MDA-MB-231
Method: as §1, §2

MRC2 = target: T5, MRC2 (Homo sapiens, UniProt Q9UBG0)
T5 construct: endogenous in cells; host or cells: MDA-MB-231
Method: as §1, §2

SYNE2 = target: T6, SYNE2 (Homo sapiens, UniProt Q8WXH0)
T6 construct: endogenous in cells; host or cells: MDA-MB-231
Method: as §1, §2

SCAF1 = target: T7, SCAF1 (Homo sapiens, UniProt Q9H7N4)
T7 construct: endogenous in cells; host or cells: MDA-MB-231
Method: as §1, §2

IGFBP4 = target: T8, IGFBP4 (Homo sapiens, UniProt P22692)
T8 construct: endogenous in cells; host or cells: MDA-MB-231
Method: as §1, §2

MAMDC2 = target: T9, MAMDC2 (Homo sapiens, UniProt Q7Z304)
T9 construct: endogenous in cells; host or cells: MDA-MB-231
Method: as §1, §2

SART3 = target: T10, SART3 (Homo sapiens, UniProt Q15020)
T10 construct: endogenous in cells; host or cells: MDA-MB-231
Method: as §1, §2

RNF5 = target: T11, RNF5 (Homo sapiens, UniProt Q99942)
T11 construct: endogenous in cells; host or cells: MDA-MB-231
Method: as §1, §2

MPHOSPH8 = target: T12, MPHOSPH8 (Homo sapiens, UniProt Q99549)
T12 construct: endogenous in cells; host or cells: MDA-MB-231
Method: as §1, §2

LAMA5 = target: T13, LAMA5 (Homo sapiens, UniProt O15230)
T13 construct: endogenous in cells; host or cells: MDA-MB-231
Method: as §1, §2

GALNT7 = target: T14, GALNT7 (Homo sapiens, UniProt Q86SF2)
T14 construct: 148 targets unique to Compound 1 in MDA-MB-231 intact cells; endogenous in cells; host or cells: MDA-MB-231
Method: as §1, §2

JMY = target: T15, JMY (Homo sapiens, UniProt Q8N9B5)
T15 construct: endogenous in cells; host or cells: MDA-MB-231
Method: as §1, §2

BMP2K = target: T16, BMP2K (Homo sapiens, UniProt Q9NSY1)
T16 construct: endogenous in cells; host or cells: MDA-MB-231
Method: as §1, §2

DDX21 = target: T17, DDX21 (Homo sapiens, UniProt Q9NR30)
T17 construct: 148 targets unique to Compound 1 in MDA-MB-231 intact cells; endogenous in cells; host or cells: MDA-MB-231
Method: as §1, §2

HNRNPR = target: T18, HNRNPR (Homo sapiens, UniProt O43390)
T18 construct: endogenous in cells; host or cells: MDA-MB-231
Method: as §1, §2

EIF4G1 = target: T19, EIF4G1 (Homo sapiens, UniProt Q04637)
T19 construct: endogenous in cells; host or cells: MDA-MB-231
Method: as §1, §2

MAN2A1 = target: T20, MAN2A1 (Homo sapiens, UniProt Q16706)
T20 construct: endogenous in cells; host or cells: MDA-MB-231
Method: as §1, §2

FOXK1 = target: T21, FOXK1 (Homo sapiens, UniProt P85037)
T21 construct: endogenous in cells; host or cells: MDA-MB-231
Method: as §1, §2

CDKN1A = target: T22, CDKN1A (Homo sapiens, UniProt P38936)
T22 construct: endogenous in cells; host or cells: MDA-MB-231
Method: as §1, §2

PIK3R4 = target: T23, PIK3R4 (Homo sapiens, UniProt Q99570)
T23 construct: endogenous in cells; host or cells: MDA-MB-231
Method: as §1, §2

RIPK 1 = target: T24, RIPK 1 (Homo sapiens, UniProt Q13546)
T24 construct: endogenous in cells; host or cells: MDA-MB-231
Method: as §1, §2

RSF1 = target: T25, RSF1 (Homo sapiens, UniProt Q96T23)
T25 construct: endogenous in cells; host or cells: MDA-MB-231
Method: as §1, §2

ANP32B = target: T26, ANP32B (Homo sapiens, UniProt Q92688)
T26 construct: endogenous in cells; host or cells: MDA-MB-231
Method: as §1, §2

LYN = target: T27, LYN (Homo sapiens, UniProt P07948)
T27 construct: endogenous in cells; host or cells: MDA-MB-231
Method: as §1, §2

RRAS2 = target: T28, RRAS2 (Homo sapiens, UniProt P62070)
T28 construct: endogenous in cells; host or cells: MDA-MB-231
Method: as §1, §2

LRCH4 = target: T29, LRCH4 (Homo sapiens, UniProt O75427)
T29 construct: endogenous in cells; host or cells: MDA-MB-231
Method: as §1, §2

AVEN = target: T30, AVEN (Homo sapiens, UniProt Q9NQS1)
T30 construct: endogenous in cells; host or cells: MDA-MB-231
Method: as §1, §2

ZNF608 = target: T31, ZNF608 (Homo sapiens, UniProt Q9ULD9)
T31 construct: endogenous in cells; host or cells: MDA-MB-231
Method: as §1, §2

HSPG2 = target: T32, HSPG2 (Homo sapiens, UniProt P98160)
T32 construct: endogenous in cells; host or cells: MDA-MB-231
Method: as §1, §2

YES1 = target: T33, YES1 (Homo sapiens, UniProt P07947)
T33 construct: endogenous in cells; host or cells: MDA-MB-231
Method: as §1, §2

PIP4P2 = target: T34, PIP4P2 (Homo sapiens, UniProt Q8N4L2)
T34 construct: endogenous in cells; host or cells: MDA-MB-231
Method: as §1, §2

HNRNPU = test system: HNRNPU
Method: as §1, §2

CST3 = target: T35, CST3 (Homo sapiens, UniProt P01034)
T35 construct: 148 targets unique to Compound 1 in MDA-MB-231 intact cells; endogenous in cells; host or cells: MDA-MB-231
Method: as §1, §2

Measured: Group (CETSA-MS thermal shift)

T29 sequence (O75427 whole entry): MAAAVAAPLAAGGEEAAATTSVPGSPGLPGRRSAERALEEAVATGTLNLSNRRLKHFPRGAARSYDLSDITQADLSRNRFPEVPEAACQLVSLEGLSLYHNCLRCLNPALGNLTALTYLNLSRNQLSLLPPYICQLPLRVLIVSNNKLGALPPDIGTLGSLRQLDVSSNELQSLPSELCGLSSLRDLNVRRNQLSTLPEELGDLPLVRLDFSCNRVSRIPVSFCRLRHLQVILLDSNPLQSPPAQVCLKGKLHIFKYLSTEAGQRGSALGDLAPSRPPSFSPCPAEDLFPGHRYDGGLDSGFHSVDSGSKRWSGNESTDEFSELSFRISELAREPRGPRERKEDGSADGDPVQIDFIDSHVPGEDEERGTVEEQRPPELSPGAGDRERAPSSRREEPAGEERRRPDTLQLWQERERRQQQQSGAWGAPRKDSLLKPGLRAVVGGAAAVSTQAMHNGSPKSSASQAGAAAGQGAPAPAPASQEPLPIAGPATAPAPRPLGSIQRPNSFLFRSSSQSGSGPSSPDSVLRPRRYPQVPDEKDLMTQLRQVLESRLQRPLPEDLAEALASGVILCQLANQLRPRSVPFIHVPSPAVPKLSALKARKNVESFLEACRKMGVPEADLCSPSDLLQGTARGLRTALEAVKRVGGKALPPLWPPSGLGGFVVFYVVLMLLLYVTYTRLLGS
T10 sequence (Q15020 whole entry): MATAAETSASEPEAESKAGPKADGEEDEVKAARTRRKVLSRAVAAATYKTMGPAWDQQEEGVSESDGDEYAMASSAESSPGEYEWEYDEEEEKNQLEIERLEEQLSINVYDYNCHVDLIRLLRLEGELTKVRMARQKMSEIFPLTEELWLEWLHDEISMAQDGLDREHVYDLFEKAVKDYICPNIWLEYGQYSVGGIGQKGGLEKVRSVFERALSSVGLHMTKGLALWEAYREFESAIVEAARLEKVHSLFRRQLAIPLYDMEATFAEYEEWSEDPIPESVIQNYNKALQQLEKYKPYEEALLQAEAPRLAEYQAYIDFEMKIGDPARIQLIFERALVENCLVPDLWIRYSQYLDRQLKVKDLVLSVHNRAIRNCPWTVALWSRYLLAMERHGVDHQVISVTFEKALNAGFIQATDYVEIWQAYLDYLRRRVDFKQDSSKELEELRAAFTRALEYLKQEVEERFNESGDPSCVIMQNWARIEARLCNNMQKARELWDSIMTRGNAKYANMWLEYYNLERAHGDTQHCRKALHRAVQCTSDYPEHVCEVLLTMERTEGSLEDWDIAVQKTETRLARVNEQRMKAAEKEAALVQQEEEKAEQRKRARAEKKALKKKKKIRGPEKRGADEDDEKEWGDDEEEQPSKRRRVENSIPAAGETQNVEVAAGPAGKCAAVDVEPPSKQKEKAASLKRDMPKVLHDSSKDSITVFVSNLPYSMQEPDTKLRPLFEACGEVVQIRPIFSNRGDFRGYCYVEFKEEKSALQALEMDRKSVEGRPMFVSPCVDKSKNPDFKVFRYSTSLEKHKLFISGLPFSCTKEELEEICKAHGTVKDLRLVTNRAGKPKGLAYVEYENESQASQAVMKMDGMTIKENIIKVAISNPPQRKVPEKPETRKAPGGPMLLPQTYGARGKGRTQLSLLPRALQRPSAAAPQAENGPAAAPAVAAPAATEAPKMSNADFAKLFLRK
T24 sequence (Q13546 whole entry): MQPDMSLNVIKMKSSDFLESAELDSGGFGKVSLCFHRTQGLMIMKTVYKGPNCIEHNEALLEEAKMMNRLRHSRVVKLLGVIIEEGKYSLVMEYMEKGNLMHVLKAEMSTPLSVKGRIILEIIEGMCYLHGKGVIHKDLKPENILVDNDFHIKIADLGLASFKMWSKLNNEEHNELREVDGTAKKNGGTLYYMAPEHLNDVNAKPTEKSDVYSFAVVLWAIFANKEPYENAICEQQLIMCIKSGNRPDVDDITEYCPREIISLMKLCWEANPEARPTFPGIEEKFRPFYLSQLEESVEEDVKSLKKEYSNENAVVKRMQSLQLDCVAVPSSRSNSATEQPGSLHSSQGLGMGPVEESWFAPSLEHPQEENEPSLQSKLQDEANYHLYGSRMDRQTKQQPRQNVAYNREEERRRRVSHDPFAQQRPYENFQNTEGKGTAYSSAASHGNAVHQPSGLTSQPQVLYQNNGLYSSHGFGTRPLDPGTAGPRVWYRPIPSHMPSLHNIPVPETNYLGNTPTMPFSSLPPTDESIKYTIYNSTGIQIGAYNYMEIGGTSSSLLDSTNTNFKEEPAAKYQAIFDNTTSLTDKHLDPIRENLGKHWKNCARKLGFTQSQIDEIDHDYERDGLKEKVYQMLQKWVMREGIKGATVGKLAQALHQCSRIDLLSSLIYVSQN
T30 sequence (Q9NQS1 whole entry): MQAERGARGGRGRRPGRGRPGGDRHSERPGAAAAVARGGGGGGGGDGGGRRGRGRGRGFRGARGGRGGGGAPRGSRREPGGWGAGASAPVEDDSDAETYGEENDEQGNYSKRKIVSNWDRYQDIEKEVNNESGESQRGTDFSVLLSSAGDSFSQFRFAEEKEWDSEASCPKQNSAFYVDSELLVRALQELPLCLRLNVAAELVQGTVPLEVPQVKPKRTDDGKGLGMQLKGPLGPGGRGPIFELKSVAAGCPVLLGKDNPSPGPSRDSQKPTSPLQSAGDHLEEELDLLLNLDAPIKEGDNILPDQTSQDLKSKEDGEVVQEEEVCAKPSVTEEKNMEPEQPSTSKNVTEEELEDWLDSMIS
T20 sequence (Q16706 whole entry): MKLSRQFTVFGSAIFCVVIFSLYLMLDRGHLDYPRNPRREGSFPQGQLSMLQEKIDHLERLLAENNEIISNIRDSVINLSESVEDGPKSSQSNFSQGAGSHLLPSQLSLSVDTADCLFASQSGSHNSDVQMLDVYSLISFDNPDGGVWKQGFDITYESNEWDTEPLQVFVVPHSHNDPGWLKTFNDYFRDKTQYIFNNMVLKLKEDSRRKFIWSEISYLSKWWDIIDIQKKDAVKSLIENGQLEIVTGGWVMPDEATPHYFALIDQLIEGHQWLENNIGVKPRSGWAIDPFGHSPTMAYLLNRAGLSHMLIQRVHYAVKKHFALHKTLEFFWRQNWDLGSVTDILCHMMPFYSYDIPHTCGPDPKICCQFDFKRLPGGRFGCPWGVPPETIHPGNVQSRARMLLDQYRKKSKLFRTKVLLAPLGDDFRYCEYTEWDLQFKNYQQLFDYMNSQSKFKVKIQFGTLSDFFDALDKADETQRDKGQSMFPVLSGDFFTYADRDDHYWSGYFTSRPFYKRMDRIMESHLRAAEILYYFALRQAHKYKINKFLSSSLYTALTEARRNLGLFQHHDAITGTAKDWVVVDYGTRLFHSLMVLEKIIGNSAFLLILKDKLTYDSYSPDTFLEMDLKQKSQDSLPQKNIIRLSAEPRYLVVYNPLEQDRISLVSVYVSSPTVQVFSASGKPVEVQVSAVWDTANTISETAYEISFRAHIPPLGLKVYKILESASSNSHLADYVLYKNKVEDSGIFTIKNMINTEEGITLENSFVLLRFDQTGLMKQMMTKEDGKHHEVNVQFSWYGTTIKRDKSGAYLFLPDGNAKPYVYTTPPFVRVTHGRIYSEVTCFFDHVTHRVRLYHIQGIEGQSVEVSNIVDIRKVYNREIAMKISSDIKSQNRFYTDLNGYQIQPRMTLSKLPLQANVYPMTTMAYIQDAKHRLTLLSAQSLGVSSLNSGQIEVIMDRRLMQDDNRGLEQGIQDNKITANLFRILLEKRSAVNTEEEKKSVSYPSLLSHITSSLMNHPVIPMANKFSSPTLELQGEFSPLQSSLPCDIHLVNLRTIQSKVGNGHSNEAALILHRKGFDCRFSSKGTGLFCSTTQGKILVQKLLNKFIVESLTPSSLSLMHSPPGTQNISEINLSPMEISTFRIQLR
T12 sequence (Q99549 whole entry): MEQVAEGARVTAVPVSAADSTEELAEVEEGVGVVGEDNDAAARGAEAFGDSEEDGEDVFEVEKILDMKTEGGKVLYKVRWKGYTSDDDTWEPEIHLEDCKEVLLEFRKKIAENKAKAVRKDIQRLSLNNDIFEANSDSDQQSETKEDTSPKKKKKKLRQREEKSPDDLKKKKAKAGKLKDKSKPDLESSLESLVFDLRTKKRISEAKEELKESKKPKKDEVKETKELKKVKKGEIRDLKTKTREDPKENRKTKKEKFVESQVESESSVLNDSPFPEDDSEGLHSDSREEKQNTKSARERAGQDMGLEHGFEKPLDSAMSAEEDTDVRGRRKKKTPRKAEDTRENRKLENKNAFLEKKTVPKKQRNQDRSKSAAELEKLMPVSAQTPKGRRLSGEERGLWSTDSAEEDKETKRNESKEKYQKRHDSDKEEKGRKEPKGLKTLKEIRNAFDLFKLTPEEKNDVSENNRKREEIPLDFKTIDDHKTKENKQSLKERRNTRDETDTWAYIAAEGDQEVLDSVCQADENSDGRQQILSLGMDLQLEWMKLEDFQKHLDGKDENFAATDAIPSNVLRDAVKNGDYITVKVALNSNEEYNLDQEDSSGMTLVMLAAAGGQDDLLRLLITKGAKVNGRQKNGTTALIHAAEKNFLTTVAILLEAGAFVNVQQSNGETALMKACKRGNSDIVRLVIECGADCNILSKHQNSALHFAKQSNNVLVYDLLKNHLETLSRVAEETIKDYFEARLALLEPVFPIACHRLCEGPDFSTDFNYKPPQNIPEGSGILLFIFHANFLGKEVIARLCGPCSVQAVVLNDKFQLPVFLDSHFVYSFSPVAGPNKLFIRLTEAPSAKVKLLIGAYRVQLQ
T11 sequence (Q99942 whole entry): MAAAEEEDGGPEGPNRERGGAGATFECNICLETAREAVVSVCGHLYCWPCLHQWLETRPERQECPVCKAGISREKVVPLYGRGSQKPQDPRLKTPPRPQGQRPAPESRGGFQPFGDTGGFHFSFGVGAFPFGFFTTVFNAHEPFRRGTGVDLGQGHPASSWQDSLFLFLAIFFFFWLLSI
T35 sequence (P01034 27-146): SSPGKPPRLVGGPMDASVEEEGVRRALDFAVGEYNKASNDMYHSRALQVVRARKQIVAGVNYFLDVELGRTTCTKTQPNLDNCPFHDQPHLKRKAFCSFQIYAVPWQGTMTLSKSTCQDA

CN1CCN(c2ccc(Nc3ncc4cc(C#N)c(=O)n(C5CCCC5)c4n3)cc2)CC1 [Compound 1, 8-cyclopentyl-2-((4-(4-methylpiperazin-1-yl)phenyl)amino)-7-oxo-7,8-dihydropyrido[2,3-d]pyrimidine-6-carbonitrile]
Destabilization: MAP3K20 | SART3 | EIF4G1 | FOXK1 | CDKN1A | ANP32B | LYN | AVEN | ZNF608 | YES1
Stabilization: all other assays above
